# In paper PMC2747051 (Biochemistry, 2009):
# Legend:
# [1] = tested on: MoeE5 (Streptomyces viridosporus); assay: anion-exchange HPLC; format: biochemical; details: 1 mM UDP-GlcUA, 1 uM enzyme, 20 mM Tris-HCl pH 7.5, 37 °C, 2 h
# [2] = tested on: MoeGT1 (Streptomyces viridosporus); assay: LC/MS conversion time course; format: biochemical; details: donor 1 mM, 40 uM compound 7, 800 nM enzyme, 5 mM MgCl2, pH 7.5, 37 °C
smiles,measurement,setting,value
O=C(O)[C@H]1O[C@H](OP(=O)(O)OP(=O)(O)OC[C@H]2O[C@@H](n3ccc(=O)[nH]c3=O)[C@H](O)[C@@H]2O)[C@H](O)[C@@H](O)[C@H]1O [UDP-GalUA],anion-exchange HPLC,[1],we conclude that MoeE5 epimerizes UDP-GlcUA to UDP-GalUA
same,LC/MS conversion time course,[2],showed a clear preference for UDP-GalUA over UDP-GlcUA
